Square brackets hold non-standard residues; d marks the D form. Ends that are not written are not given here. pS = N[C@@H](COP(=O)(O)O)C(=O)O
Columns and labels:
[1] = system: TP-induced AGA model mice; assay: TP-induced AGA model, Animal model II (JP1 topical, dose-effect); format: in vivo, C57BL/6J male mice; details: for hair coverage on the 18th day: twice a day
Method: To prolong the action time of JP1, the design scheme of the animal model in this example adjusted the once-a-day of the first model to twice-a-day administration with an interval of 6 h (FIG. 6A). For details of the experiments, please refer to “Animal model II” of “1. TP-induced AGA model” in “Experimental Methods” below.
The mice used in this study were 5-week-old C57BL/6J male mice (18-20 g), which were purchased from Jiangsu Jicui Pharmachem Biotechnology Co. All the animals used in the experiments were housed in the SPF-level environment of the Medical Laboratory Animal Center of Nanjing Medical University, and the relevant animal experimental operations were approved by the Animal Ethics Committee of Nanjing Medical University. The control group was left untreated, and the other groups were injected with TP subcutaneously on their backs every day. Two weeks later, the hair on the backs of the mice was shaved with an electric razor, covering an area of 2 cm×4 cm, and then the residual hair was removed with a hair removal cream. The subcutaneous injections of TP on the shaved backs of the mice in the AGA model was continued until the end of the experimental period, and the administration of TP in each of the treatment groups was begun on the 1st day of the dehairing process.
In addition to the normal control group (denoted as control) n=20, all mice injected subcutaneously with TP were randomly divided into the following groups (n=20): the model group (denoted as model), the 0.1% JP1, the 0.5% JP1, the 1% JP1 (all administered by topical dermal application), and the 5% minoxidil group.
Mice were weighed every two days during the experiment. Skin color was assessed against skin score charts. The mice were euthanized and treated at the end of the experiment, and skin tissues were taken from the dorsal decorticated area of the mice. Some of the tissues were fixed with 4% paraformaldehyde solution and then paraffin sections were made for H&E or immunofluorescence staining, etc., and some of the tissues were stored in the refrigerator at −80° C. for relevant molecular expression assays (qRT-PCR, Western Blot, IP, etc.).
8.1) Sampling and fixation: After the experiment, skin tissue was taken from the depilated area on the back of the mouse and placed in a 10 mL EP tube. 4% paraformaldehyde was added to the EP tube, and all tissues were immersed to denature and coagulate the proteins of the skin tissue. The original morphology and structure of the cells were maintained.
8.6) H&E staining: the sections pretreated in distilled water were put into aqueous hematoxylin solution for a few minutes for staining. The color was separated in acid water and ammonia for a few seconds each. After rinsing in running water for 1 h, the sections were placed in distilled water for a few moments. The sections were dehydrated in 70% and 90% alcohol for 10 min each, and stained in alcoholic eosin stain for 2-3 min.

SRD5A2 = assay: qPCR of SRD5A2 mRNA in skin tissue of model mice; format: in vivo, mouse; details: model II, P>0.05
Method: 6.1) Sample preparation: 15-20 mg of mouse skin tissue was placed in a 1.5 mL centrifuge tube, and 600 μL of pre-cooled lysate was quickly added, and homogenized with an electric homogenizer. The homogenate obtained was blown gently 10 times, left at room temperature for 3-5 min, then centrifuged at 14,000×g for 5 min, and the supernatant was transferred to a new centrifuge tube with a pipette gun of suitable volume.
6.10) Reverse transcribe the RNA into cDNA according to the instructions of the reverse transcription kit, and then carry out subsequent experiments or store at −20° C. for later use.
(§1) 7.1) Dilute the specific gene amplification primers to 10 µM in ddH2O, prepare the qPCR reaction system according to the instructions in the kit and add them sequentially into a 384-well plate.
(§2) 7.3) Relative mRNA expression levels of genes were calculated by the […] relative quantification method using GAPDH as an internal reference.

Wnt10a = Wnt10a expression in skin tissue (qPCR, Western blotting); format: in vivo, mouse
Method: To illustrate the regulation of JP1 on the upstream Wnt ligand of β-catenin, this example intersected classical signaling pathway-related Wnt ligands and AGA-related Wnt ligands, and screened out the related Wnt ligands, including Wnt1, Wnt3a, Wnt7b, Wnt10a, and Wnt10b. In this example, qPCR was used to detect the mRNA expression of these Wnt molecules in the skin tissue of the mouse model in Example 6.
(§3) 4.1) Protein extraction: 70 mg of skin tissue was placed in a 1.5 mL centrifuge tube, and 500 μL of tissue lysate RIPA containing protease inhibitor and phosphatase inhibitor was added. The tissue was placed on an ice box, pulverized by a tissue grinder, and then ultrasonically crushed to obtain a tissue suspension, which was then placed in a rotary windmill at 4° C. to be lysed for 2 h. The centrifuge was set at 12,000×g, 4° C., centrifuged for 15 min, and the supernatant was collected as the total protein.
5.1) Heating of protein samples: the total protein content of each tissue was 50 μg; calculate the volume of a corresponding protein sample, make up the volume with saline to 16 μL, then add 4 μL of 5×SDS sampling buffer, heat at 100° C. for 5 min, and then cool at room temperature and store at −20° C. […]
as §2

MYC = assay: qPCR of MYC mRNA in skin tissue; format: in vivo, mouse; details: P>0.05
Method: as §1, §2

AR, FOXD3, and FOXI1 = assay: qPCR of other predicted SP1 transcription factors in skin tissue; format: in vivo, mouse; details: P>0.05
Method: Four transcription factors that can bind to the SP1 promoter region were obtained by taking the intersection of the predicted data: E2F1, AR, FOXD3, and FOXI1 (FIG. 13A).
as §1, §2

p-ERK = assay: Immunoblotting of p-ERK in skin tissue; format: in vivo, mouse; details: P<0.05, dose-effect relationship
Method: as §3
(§4) 5.1) Heating of protein samples: the total protein content of each tissue was 50 μg; calculate the volume of a corresponding protein sample, make up the volume with saline to 16 μL, then add 4 μL of 5×SDS sampling buffer, heat at 100° C. for 5 min, and then cool at room temperature and store at −20° C.
5.7) Primary antibody incubation: the cut protein bands were placed into the corresponding primary antibody and incubated at 4° C. on a shaker overnight, washed with TBST 3 times for 10 min/time.

integrin αv = assay: Integrin αv expression in skin tissue (qPCR, immunoblotting, immunofluorescence); format: in vivo, mouse
Source text: In this example, the mRNA expression levels of RGD-targeting molecules in the skin tissues of three groups of mice, namely, the AGA model control group, the model group and the JP1-treated group, were further examined.
To verify whether JP1 targeted integrin molecules are localized in hair follicles in the skin tissue, this example detected the expression levels, tissue localization, and distribution of integrin αv and integrin β1 in the skin tissue of the mouse model in Example 6 using immunofluorescence staining.
as §3, §4, §1, §2
9.5) Primary antibody incubation: the tissue was circled by the histochemical pen, about 50 μL of primary antibody was added dropwise to the tissue, and incubated in a wet box overnight at 4° C., washed 3 times with PBS.

FPGSDRF-RGD (FPG[pS]DRFRGD) [JP1, amino acid S is phosphorylated; JWA peptide]
hair coverage on the 18th day ([1]; 0.1% JP1 topical): lowest
hair bulb size on day 11 among groups ([1]; 1% JP1 group): largest
hair coverage on the 18th day ([1]; 1% JP1 topical): highest hair coverage
hair follicle phase on day 11 ([1]; H&E longitudinal, model group just entered the anagen phase): mid-growth phase
total number of hair follicles vs model group ([1]; H&E transverse sections, day 11): increased significantly and dose-dependently
effect on growth cycle of hair follicles ([1]; JP1 or minoxidil intervention): accelerate the entry of hair follicles into the anagen phase and shorten the resting phase
diameter of the hair bulb vs model group ([1]; day 11): significantly larger than that of the model group
difference between body weights of the groups ([1]; during the experiment): no statistically significant difference
hair follicle phase on day 32 ([1]; medium and high dose JP1 group, model group entered the resting phase): entered the anagen phase again
dose-effect relationship of AGA hair follicle regeneration ([1]; skin-coating 0.1%, 0.5%, 1% JP1): significant dose-effect relationship
skin color on the 11th day ([1]; topical, model group appeared orange): changed to gray
SRD5A2 mRNA level, difference between groups (SRD5A2): no statistically significant difference
Wnt10a protein expression (Wnt10a; Western blotting, dose-dependent): significantly up-regulated
Wnt10a mRNA expression (Wnt10a; qPCR, P<0.05): elevated with a dose-effect relationship
MYC mRNA level, difference between groups (MYC): not statistically significant
mRNA expression of other molecules (predicted SP1 transcription factors) (AR, FOXD3, and FOXI1): did not change significantly
p-ERK expression level (p-ERK): elevated
integrin αv expression, immunofluorescence staining (integrin αv; each JP1 intervention group, localized in the site of hair follicles): elevated
integrin αv protein level (TP-down-regulated) (integrin αv; skin tissue, immunoblotting, JP1 P<0.01): reversed
integrin αv expression at the end of the model (integrin αv; skin tissue, qPCR, P<0.01): returned to control levels
integrin αv mRNA expression after JP1 intervention (integrin αv; skin tissue, qPCR, decreased in TP model group, P<0.01): significantly elevated

— US20250332212A1, “METHOD FOR TREATING OR PREVENTING ALOPECIA” (Suzhou Mingren Pharmaceutical Biotechnology Co., Ltd., priority 2024, published 2025)
